Biological target: T1, F508del CFTR (Homo sapiens, UniProt P13569, DEL508-508)
T1 construct: Primary CF airway epithelial cells were obtained from the UNC Cystic Fibrosis Tissue Procurement and Cell Culture Core; host or cells: primary CF airway epithelial cells
Test: Equivalent current assay in primary CF airway epithelial cells (Corrector Activity, NAUC normalized to 3 μM VX809)
Format: cell-based
Conditions: NAUC as % of positive control (VX-809)
Protocol: Primary CF airway epithelial cells were obtained from the UNC Cystic Fibrosis Tissue Procurement and Cell Culture Core. The cells are grown at 37° C. in a Heracell 150i incubator using growth media (BEGM, Fischer). Cells were then transferred to differentiation media (airway liquid interface media (ALI) media; Lechner J F and LaVeck M A, J. Tissue Culture Methods 1985, 9: 43-48) for a minimum of 4 weeks on coated Costar transwells. Two days before the assay the mucus on the apical surface of the cells was aspirated after incubating with 200 μL of differentiation media for at least thirty (30) minutes. One day before the assay test compounds were added to the basolateral surface of the cells at various test concentrations dissolved in DMSO. Duplicate wells were prepared giving a n=4 or n=6 protocol.
Cells were treated for 24 hours with various combinations and concentrations of the test articles, reference standard (3 μM VX809, positive control). Compounds stock solutions were prepared in DMSO and diluted 1/1000 into ALI media to their final assay concentration. Cells were treated with combination solutions (2 mL of each dilution) and incubated at 37° C. for 24 h.
For the equivalent current assay, cells on six Transwell (24-well) plates were treated. Each Transwell plate was filled with 200 μl of HBS on the apical surface and 2 ml on the basolateral surface. Plates were placed horizontally in a heated mount at 37° C. and equilibrated for 30 minutes. Resting current was measured for 15 min and then blocked by the apical addition of 5 μM benzamil. After 20 min, CFTR activator (10 μM forskolin) and potentiator (either 1 μM VX-770 or 3 μM FDL176) were added to both the apical and basolateral side to stimulate CFTR. An increase in chloride current is seen as an upward deflection of the trace. After another 60 min, CFTR-172 (a CFTR inhibitor, 20 μM) and/or bumetanide (20 uM) was added to block CFTR mediated chloride current.
The raw data, voltage vs. time and resistance vs. time for the equivalent current assay (sampling interval: 6 minutes) were transferred to Excel (Microsoft Office Professional, version 14.0.7106.5003) for analysis. CFTR specific current was computed from I=V/R (Ohms Law), the average amplitude of the increase in current elicited upon addition forskolin and ending upon addition of the CFTR channel specific blocker CFTR-172. This average is equivalent to the sum of the average forskolin activated and the average VX770-potentiated currents. The average current measured in vehicle (0.1% DMSO) treated cells, IV, was subtracted from the current for the test article, ITA, or from the corrector reference standard VX809 (3 uM, ISTD). For replicate measurements, the averaged vehicle subtracted response for the test article, was normalized to the averaged vehicle subtracted response of the reference corrector VX809 (3 μM).
INSC=(ITA−IV)(ave)/(ISTD−IV)(ave) (Equation 1)
A second endpoint, for the equivalent current assay, evaluated was NAUC, the normalized area under the curve (AUC) measuring the response after addition of forskolin and potentiator to the time point right before the addition of the CFTR inhibitor. The AUC is effectively the average response multiplied by the duration of the response. The AUC of the test article, AUCTA was then corrected by subtracting the average vehicle response, AUCV,ave over the same time range, and normalized as for the inhibitor-sensitive current to the difference of the corrector reference standard VX809 (3 μM VX809r,ave and the vehicle response:
NAUCTA=[AUCTA−AUCV,ave]/[AUCVx809r,ave−AUCV,ave] (Equation 2).
The normalized value for DMSO is 0.0 and for VX-809 alone is 1.0 for both of these equations.
Experiments were run with a minimum of n=4 replicates per concentration. Since the distribution for the ratio of two normal distributions is a Cauchy distribution, the median value must be used for the average and the average deviation must be used for the error of all normalized data. […]

T1 sequence (P13569 with tags, fused parts or gaps DEL508-508): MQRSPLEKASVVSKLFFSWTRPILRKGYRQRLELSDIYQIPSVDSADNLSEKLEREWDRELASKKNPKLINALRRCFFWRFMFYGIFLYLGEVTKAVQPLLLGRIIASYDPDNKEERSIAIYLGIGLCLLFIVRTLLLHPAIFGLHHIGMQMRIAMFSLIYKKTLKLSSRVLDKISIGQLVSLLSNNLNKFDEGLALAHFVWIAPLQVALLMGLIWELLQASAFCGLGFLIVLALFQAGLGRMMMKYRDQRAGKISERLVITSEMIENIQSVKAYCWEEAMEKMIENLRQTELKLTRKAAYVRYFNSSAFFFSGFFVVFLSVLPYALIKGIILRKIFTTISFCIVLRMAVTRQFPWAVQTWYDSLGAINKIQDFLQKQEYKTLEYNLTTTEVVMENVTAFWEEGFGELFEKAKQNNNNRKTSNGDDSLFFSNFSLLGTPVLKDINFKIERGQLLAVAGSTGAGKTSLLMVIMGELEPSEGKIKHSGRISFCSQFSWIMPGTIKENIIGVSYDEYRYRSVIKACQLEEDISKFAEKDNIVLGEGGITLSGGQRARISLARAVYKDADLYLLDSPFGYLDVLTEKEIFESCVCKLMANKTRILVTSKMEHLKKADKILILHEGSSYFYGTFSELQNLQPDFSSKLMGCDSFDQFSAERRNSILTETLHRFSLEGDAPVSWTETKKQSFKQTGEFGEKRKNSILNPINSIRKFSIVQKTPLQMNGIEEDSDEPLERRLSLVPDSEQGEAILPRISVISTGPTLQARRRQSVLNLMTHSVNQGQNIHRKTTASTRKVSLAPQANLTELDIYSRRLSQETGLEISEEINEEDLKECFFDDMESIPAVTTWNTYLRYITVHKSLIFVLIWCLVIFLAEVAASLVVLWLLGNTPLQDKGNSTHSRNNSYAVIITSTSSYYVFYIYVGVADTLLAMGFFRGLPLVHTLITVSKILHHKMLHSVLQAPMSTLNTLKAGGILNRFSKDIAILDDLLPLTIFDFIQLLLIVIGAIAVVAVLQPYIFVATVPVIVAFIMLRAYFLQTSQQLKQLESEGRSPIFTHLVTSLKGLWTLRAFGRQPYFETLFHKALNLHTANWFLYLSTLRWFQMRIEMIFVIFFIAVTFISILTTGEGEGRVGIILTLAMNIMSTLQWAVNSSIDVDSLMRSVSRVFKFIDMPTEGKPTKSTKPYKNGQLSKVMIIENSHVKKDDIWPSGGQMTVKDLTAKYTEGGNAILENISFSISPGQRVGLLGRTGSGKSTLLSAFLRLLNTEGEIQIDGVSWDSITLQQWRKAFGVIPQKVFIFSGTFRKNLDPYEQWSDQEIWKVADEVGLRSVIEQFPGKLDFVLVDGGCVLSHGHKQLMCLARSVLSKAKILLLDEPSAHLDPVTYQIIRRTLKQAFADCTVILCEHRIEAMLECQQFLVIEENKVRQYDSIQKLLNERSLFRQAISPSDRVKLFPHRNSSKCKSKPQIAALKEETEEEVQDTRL

Corr Activity (NAUC)	SMILES
+++ (NAUC>70% of positive control)	CCN(C(=O)Cn1nc(-c2cc(C#N)cc(C(C)(C)C)c2)c2oc(C(=O)NC(C)(C)C)cc2c1=O)c1ccc2c(c1)OC(F)(F)O2 [Example 130]
+++ (NAUC>70% of positive control)	CCN(C(=O)Cn1nc(-c2cc(C)cc(C#N)c2)c2oc(C(=O)NC(C)(C)C)cc2c1=O)c1cc2c(cc1C)OC(F)(F)O2 [Example 133]
++ (NAUC 70-40% of positive control)	Cc1cc(C#N)cc(-c2nn(CC(=O)N(C)c3cc4c(cc3C)OC(F)(F)O4)c(=O)c3cc(C(=O)NC(C)(C)C)oc23)c1 [Example 134]
+++ (NAUC>70% of positive control)	Cc1cc2c(cc1N(C)C(=O)Cn1nc(-c3cc(F)cc(C#N)c3)c3oc(C(=O)NC(C)(C)C)cc3c1=O)OC(F)(F)O2 [Example 135]
+++ (NAUC>70% of positive control)	CCN(C(=O)Cn1nc(-c2cc(F)cc(C#N)c2)c2oc(C(=O)NC(C)(C)C)cc2c1=O)c1cc2c(cc1C)OC(F)(F)O2 [Example 136]
++ (NAUC 70-40% of positive control)	CCN(C(=O)Cn1nc(-c2cc(F)cc(C#N)c2)c2oc(C(=O)NC(C)(C)C)cc2c1=O)c1ccc2c(c1C)OC(F)(F)O2 [Example 140]
++ (NAUC 70-40% of positive control)	CCN(C(=O)Cn1nc(-c2cc(Cl)cc(C#N)c2)c2oc(C(=O)NC(C)(C)C)cc2c1=O)c1ccc2c(c1C)OC(F)(F)O2 [Example 142]
++ (NAUC 70-40% of positive control)	CN(C(=O)Cn1nc(-c2cc(C#N)cc(C(F)(F)F)c2)c2oc(C(=O)NC(C)(C)C)cc2c1=O)c1ccc2c(c1)OC(F)(F)O2 [Example 143]
++ (NAUC 70-40% of positive control)	Cc1cc2c(cc1N(C)C(=O)Cn1nc(-c3cc(C#N)cc(C(F)F)c3)c3oc(C(=O)NC(C)(C)C)cc3c1=O)OC(F)(F)O2 [Example 145]
+++ (NAUC>70% of positive control)	CCN(C(=O)Cn1nc(-c2cccc(C#N)c2)c2oc(C(=O)NC(C)(C)C)cc2c1=O)c1ccc2c(c1F)OC(F)(F)O2 [Example 147]
+++ (NAUC>70% of positive control)	CN(C(=O)Cn1nc(-c2cccc(C#N)c2)c2oc(C(=O)NC(C)(C)C)cc2c1=O)c1ccc2c(c1F)OC(F)(F)O2 [Example 148]
+++ (NAUC>70% of positive control)	CCN(C(=O)Cn1nc(-c2cc(C)cc(C#N)c2)c2oc(C(=O)NC(C)(C)C(F)(F)F)cc2c1=O)c1ccc2c(c1)OC(F)(F)O2 [Example 150]
+++ (NAUC>70% of positive control)	CCN(C(=O)Cn1nc(-c2cc(C)cc(C#N)c2)c2oc(C(=O)NC(C)(C)C(F)(F)F)cc2c1=O)c1cc2c(cc1C)OC(F)(F)O2 [Example 151]
+++ (NAUC>70% of positive control)	CCN(C(=O)Cn1nc(-c2cc(C)cc(C#N)c2)c2oc(C(=O)NC3(C(F)(F)F)CC3)cc2c1=O)c1ccc2c(c1)OC(F)(F)O2 [Example 152]
++ (NAUC 70-40% of positive control)	Cc1nc2ccc(N(C)C(=O)Cn3nc(-c4cccc(F)c4)c4oc(C(=O)NC(C)C)cc4c3=O)cc2o1 [Example 155]
+++ (NAUC>70% of positive control)	Cc1cc(C#N)cc(-c2nn(CC(=O)N(C)c3cc4c(cc3C)OC(F)(F)O4)c(=O)c3ccoc23)c1 [Example 165]
+++ (NAUC>70% of positive control)	Cc1cc2c(cc1N(C)C(=O)Cn1nc(-c3cc(F)cc(C#N)c3)c3occc3c1=O)OC(F)(F)O2 [Example 166]
+++ (NAUC>70% of positive control)	CCN(C(=O)Cn1nc(-c2cc(F)cc(C#N)c2)c2occc2c1=O)c1cc2c(cc1C)OC(F)(F)O2 [Example 167]

The next lines start with the compound.

SMILES	Corr Activity (NAUC)
CC(C)(C)NC(=O)c1cc2c(=O)n(CC(=O)N3CCCc4c3ccc3c4OC(F)(F)O3)nc(-c3cccc(Cl)c3)c2o1 [Example 128]	++ (NAUC 70-40% of positive control)
CC(C)(C)NC(=O)c1cc2c(=O)n(CC(=O)N3CCCc4c3ccc3c4OC(F)(F)O3)nc(-c3cccc(C#N)c3)c2o1 [Example 129]	++ (NAUC 70-40% of positive control)
CCN(C(=O)Cn1nc(-c2cc(C)cc(C#N)c2)c2oc(C(=O)NC(C)(C)C)cc2c1=O)c1ccc2c(c1)OC(F)(F)O2 [Example 131]	+++ (NAUC>70% of positive control)
Cc1cc(C#N)cc(-c2nn(CC(=O)N(C)c3ccc4c(c3)OC(F)(F)O4)c(=O)c3cc(C(=O)NC(C)(C)C)oc23)c1 [Example 132]	+++ (NAUC>70% of positive control)
CCN(C(=O)Cn1nc(-c2cc(Cl)cc(C#N)c2)c2oc(C(=O)NC(C)(C)C)cc2c1=O)c1cc2c(cc1C)OC(F)(F)O2 [Example 137]	+++ (NAUC>70% of positive control)
Cc1cc2c(cc1N(C)C(=O)Cn1nc(-c3cc(Cl)cc(C#N)c3)c3oc(C(=O)NC(C)(C)C)cc3c1=O)OC(F)(F)O2 [Example 138]	+++ (NAUC>70% of positive control)
Cc1c(N(C)C(=O)Cn2nc(-c3cc(F)cc(C#N)c3)c3oc(C(=O)NC(C)(C)C)cc3c2=O)ccc2c1OC(F)(F)O2 [Example 139]	+++ (NAUC>70% of positive control)
Cc1c(N(C)C(=O)Cn2nc(-c3cc(Cl)cc(C#N)c3)c3oc(C(=O)NC(C)(C)C)cc3c2=O)ccc2c1OC(F)(F)O2 [Example 141]	+++ (NAUC>70% of positive control)
CCN(C(=O)Cn1nc(-c2cc(C#N)cc(C(F)(F)F)c2)c2oc(C(=O)NC(C)(C)C)cc2c1=O)c1ccc2c(c1)OC(F)(F)O2 [Example 144]	+++ (NAUC>70% of positive control)
CN(C(=O)Cn1nc(-c2cc(C#N)cc(C(F)F)c2)c2oc(C(=O)NC(C)(C)C)cc2c1=O)c1ccc2c(c1)OC(F)(F)O2 [Example 146]	+++ (NAUC>70% of positive control)
CCN(C(=O)Cn1nc(-c2cccc(C#N)c2)c2oc(C(=O)NC(C)(C)C(F)(F)F)cc2c1=O)c1ccc2c(c1)OC(F)(F)O2 [Example 149]	+++ (NAUC>70% of positive control)
CCN(C(=O)Cn1nc(-c2cccc(C#N)c2)c2oc(C(=O)NC3(C(F)(F)F)CC3)cc2c1=O)c1ccc2c(c1)OC(F)(F)O2 [Example 153]	+++ (NAUC>70% of positive control)
CCN(C(=O)Cn1nc(-c2cc(C)cc(C#N)c2)c2oc(C(=O)NC3(C(F)(F)F)CC3)cc2c1=O)c1cc2c(cc1C)OC(F)(F)O2 [Example 154]	+++ (NAUC>70% of positive control)
Cc1nc2ccc(N(C)C(=O)Cn3nc(-c4cccc(C#N)c4)c4oc(C(=O)NC(C)C)cc4c3=O)cc2o1 [Example 156]	++ (NAUC 70-40% of positive control)
Cc1nc2ccc(N(C)C(=O)Cn3nc(-c4cccc(F)c4)c4oc5ccccc5c4c3=O)cc2o1 [Example 157]	++ (NAUC 70-40% of positive control)
Cc1nc2ccc(N(C)C(=O)Cn3nc(-c4cccc(C#N)c4)c4oc5ccccc5c4c3=O)cc2o1 [Example 158]	+++ (NAUC>70% of positive control)
CCN(C(=O)Cn1nc(-c2cccc(C#N)c2)c2oc3ccccc3c2c1=O)c1ccc2c(c1)OC(F)(F)O2 [Example 159]	+++ (NAUC>70% of positive control)
O=C(Cn1nc(-c2cccc(F)c2)c2occc2c1=O)N1CCCc2c1ccc1c2OC(F)(F)O1 [Example 162]	+++ (NAUC>70% of positive control)
Cc1cc(C#N)cc(-c2nn(CC(=O)N3CCCc4c3ccc3c4OC(F)(F)O3)c(=O)c3ccoc23)c1 [Example 163]	+++ (NAUC>70% of positive control)
CCN(C(=O)Cn1nc(-c2cc(C)cc(C#N)c2)c2occc2c1=O)c1cc2c(cc1C)OC(F)(F)O2 [Example 164]	+++ (NAUC>70% of positive control)
